The values that follow come from patent US10709758B2 (priority 2015, dated 2020).

The target of the assay is TcdB1 (Clostridioides difficile, UniProt P18177).
Chain of TcdB1 (P18177 2-2366 limits assumed): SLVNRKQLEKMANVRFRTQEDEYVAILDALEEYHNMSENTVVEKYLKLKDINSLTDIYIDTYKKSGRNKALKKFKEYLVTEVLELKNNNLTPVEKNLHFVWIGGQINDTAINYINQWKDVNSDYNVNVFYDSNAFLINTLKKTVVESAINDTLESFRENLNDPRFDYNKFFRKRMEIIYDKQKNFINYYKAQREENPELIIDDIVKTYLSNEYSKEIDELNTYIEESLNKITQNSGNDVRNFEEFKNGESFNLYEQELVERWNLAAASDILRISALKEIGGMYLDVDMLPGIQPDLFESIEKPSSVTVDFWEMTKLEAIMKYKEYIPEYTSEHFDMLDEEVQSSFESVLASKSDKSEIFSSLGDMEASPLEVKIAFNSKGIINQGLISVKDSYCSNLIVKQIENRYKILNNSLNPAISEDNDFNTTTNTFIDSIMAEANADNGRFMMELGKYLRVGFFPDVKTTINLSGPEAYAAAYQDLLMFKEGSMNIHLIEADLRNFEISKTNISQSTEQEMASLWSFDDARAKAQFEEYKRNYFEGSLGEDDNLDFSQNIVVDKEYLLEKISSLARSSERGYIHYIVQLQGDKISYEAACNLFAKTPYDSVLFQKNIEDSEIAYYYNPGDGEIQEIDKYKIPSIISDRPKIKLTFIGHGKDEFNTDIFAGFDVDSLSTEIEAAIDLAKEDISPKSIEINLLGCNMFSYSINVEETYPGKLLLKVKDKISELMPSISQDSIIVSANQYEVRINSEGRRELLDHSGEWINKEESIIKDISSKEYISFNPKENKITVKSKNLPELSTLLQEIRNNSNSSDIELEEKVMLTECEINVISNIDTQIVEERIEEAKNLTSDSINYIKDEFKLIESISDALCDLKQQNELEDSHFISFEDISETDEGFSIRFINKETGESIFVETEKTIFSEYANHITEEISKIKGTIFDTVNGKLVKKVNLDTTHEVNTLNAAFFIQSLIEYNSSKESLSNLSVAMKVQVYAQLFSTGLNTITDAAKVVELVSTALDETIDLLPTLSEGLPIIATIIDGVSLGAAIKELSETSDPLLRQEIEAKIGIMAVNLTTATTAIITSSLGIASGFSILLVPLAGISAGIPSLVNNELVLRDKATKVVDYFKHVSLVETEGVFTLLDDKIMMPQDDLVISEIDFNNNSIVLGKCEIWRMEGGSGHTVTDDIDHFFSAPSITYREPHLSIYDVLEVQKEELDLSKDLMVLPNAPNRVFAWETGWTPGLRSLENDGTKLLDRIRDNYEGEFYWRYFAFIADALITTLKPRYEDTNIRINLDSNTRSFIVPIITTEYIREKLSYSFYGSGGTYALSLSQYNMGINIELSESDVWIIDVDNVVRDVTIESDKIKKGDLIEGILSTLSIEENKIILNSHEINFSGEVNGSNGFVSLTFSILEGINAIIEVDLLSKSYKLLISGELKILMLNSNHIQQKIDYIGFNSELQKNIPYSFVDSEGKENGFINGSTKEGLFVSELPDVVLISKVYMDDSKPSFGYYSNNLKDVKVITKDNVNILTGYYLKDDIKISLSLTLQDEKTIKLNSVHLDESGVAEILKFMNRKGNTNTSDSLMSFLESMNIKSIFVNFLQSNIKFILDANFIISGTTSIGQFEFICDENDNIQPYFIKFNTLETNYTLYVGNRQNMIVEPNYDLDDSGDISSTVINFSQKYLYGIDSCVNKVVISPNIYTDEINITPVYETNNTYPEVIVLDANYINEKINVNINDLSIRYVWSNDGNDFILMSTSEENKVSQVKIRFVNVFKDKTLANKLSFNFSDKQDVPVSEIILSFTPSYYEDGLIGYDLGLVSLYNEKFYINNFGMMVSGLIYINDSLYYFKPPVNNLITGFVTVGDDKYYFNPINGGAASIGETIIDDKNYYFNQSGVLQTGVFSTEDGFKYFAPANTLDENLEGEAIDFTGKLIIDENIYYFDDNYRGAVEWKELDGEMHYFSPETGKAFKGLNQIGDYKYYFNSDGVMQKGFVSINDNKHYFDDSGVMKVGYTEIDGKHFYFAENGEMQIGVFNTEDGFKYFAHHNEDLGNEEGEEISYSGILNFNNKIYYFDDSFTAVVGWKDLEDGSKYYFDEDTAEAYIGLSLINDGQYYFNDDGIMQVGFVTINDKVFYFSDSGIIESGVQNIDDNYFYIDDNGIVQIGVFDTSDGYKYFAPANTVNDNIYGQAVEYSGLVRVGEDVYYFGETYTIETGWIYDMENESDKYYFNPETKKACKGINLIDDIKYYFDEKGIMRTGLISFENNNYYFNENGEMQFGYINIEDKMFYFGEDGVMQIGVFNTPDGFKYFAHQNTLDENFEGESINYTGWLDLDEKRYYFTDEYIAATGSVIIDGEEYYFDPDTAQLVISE

On to NVFKGNTLANKLSFNFSDK [PepB1-DK5-6GN], for which the “TcdB inhibitory activity of PepB2/PepB1 substitution variants” value is recorded as “Inhibitory activity was gained”.
Under NVFKDNTISDKISFNFSDK [PepB2-G5D] stands “inhibitor activity was lost”.
To NVFKGKTISDKISFNFSDK [PepB2-N6K] belongs “TcdB inhibitory activity also disappeared”; to NVFKDKTISDKISFNFSDK [PepB2-GN5-6DK], “inhibitory activity of the resulting peptide was lost”; to NVFKSNTISDKISFNFSDK [PepB2-G5S], “activity was also lost”.
